Assay results as given in PMC7690281 (Antiviral Research, 2020).
“Also recorded” adds a separate entry of the source. Counter-ions that a name gives are not always drawn.

What was measured:
[1] = system: VSV pseudovirions with EBOV GP (rVSV-EBOV-luc); assay type: cell-based, Ebola virus (EBOV)
[2] = system: acidic endosomes of Vero cells; assay type: cell-based
ASFV Bpp30GFP = assay type: cell-based, African swine fever virus (ASFV); details: for reduction of ASFV infectivity: 10 μM
[3] = system: SARS-2-CoV spike protein-pseudotyped retrovirus (SARS-2-Spp); assay type: cell-based, SARS-CoV-2
[4] = system: ASFV viral DNA (p72 gene); assay type: cell-based, African swine fever virus (ASFV)
[5] = system: ASFV early p30 and late p72 proteins; assay type: cell-based, African swine fever virus (ASFV)
[6] = system: endolysosomal calcium in Vero cells; assay type: cell-based

Cc1cccc(/C=N/Nc2cc(N3CCOCC3)nc(OCCc3ccccn3)n2)c1 [Apilimod]
infectivity reduction, EBOV GP pseudovirus [1]: over 75%

CO/C1=C\C(C)=C\[C@@H](C)[C@@H](O)[C@@H](C)C/C(C)=C/C=C/[C@H](OC)[C@@H]([C@@H](C)[C@@H](O)[C@H](C)[C@@]2(O)C[C@@H](O)[C@H](C)[C@@H](C(C)C)O2)OC1=O [BAF, Bafilomycin]
endosome acidification (LysoTracker Red staining) [2]: strong reduction of acidic endosomes

C[C@]12CC[C@@H]3c4ccc(O)cc4CC[C@H]3[C@@H]1CC[C@@H]2O [Estradiol, β-Estradiol]
effect on ASFV infection/entry (ASFV Bpp30GFP): low impact

C[C@]12CC[C@@H]3c4ccc(O)cc4C[C@@H](CCCCCCCCC[S+]([O-])CCCC(F)(F)C(F)(F)F)[C@H]3[C@@H]1CC[C@@H]2O (stereo partly drawn) [Fulvestran, Fulvestrant]
impact on ASFV infectivity (ASFV Bpp30GFP; 100 μM): under 20%

Cl.O=C(c1ccc(OCCN2CCCCC2)cc1)c1c(-c2ccc(O)cc2)sc2cc(O)ccc12 [Raloxifen, Raloxifene hydrochloride]
reduction of SARS-2-Spp entry (luciferase levels) compared to vehicle [3]: over 90%
effect on ASFV infection/entry (ASFV Bpp30GFP): potent inhibitory effect; also recorded: strongly reduced ASFV entry
reduction of ASFV infectivity (ASFV Bpp30GFP): 80%
viral DNA replication (ASFV genome copy number) [4]: reduced viral DNA synthesis
expression of early viral protein p30 and late viral protein p72 [5]: reduction of the expression of early viral protein p30 and late viral protein p72
distribution of calcium indicator Fluo8 [6]: calcium indicator markedly accumulated in fluorescent vesicles
distribution of calcium indicator Fluo8 and viral factories [6]: marked accumulation of fluorescent vesicles and the absence of viral factories

CC/C(=C(\c1ccccc1)c1ccc(OCCN(C)C)cc1)c1ccccc1 [Tamoxifen, Tamoxifen citrate]
effect on ASFV infection/entry (ASFV Bpp30GFP): potent inhibitory effect; also recorded: strongly reduced ASFV entry
reduction of ASFV infectivity (ASFV Bpp30GFP): 80%
viral DNA replication (ASFV genome copy number) [4]: reduced viral DNA synthesis
expression of early viral protein p30 and late viral protein p72 [5]: reduction of the expression of early viral protein p30 and late viral protein p72

COc1ccc2cc1Oc1ccc(cc1)C[C@H]1c3cc(c(OC)cc3CCN1C)Oc1c(OC)c(OC)cc3c1[C@H](C2)N(C)CC3 [Tetrandine, Tetrandrine]
reduction of SARS-2-Spp entry (luciferase levels) compared to vehicle [3]: over 99%

COc1ccc(CCN(C)CCCC(C#N)(c2ccc(OC)c(OC)c2)C(C)C)cc1OC (stereo not drawn) [Verapamil]
reduction of SARS-2-Spp entry (luciferase levels) compared to vehicle [3]: over 90%

Nc1ccc(C(=O)Nc2cccc(-c3nc(N4CCOCC4)c4oc5ncccc5c4n3)c2)cn1 [YM201636]
reduction in the luciferase activity levels (SARS-2-Spp) ([3]; 1 μM): 65%
